Assay results published in ChEMBL document CHEMBL1909046, “DrugMatrix in vitro pharmacology data”.

Key:
[1] = target: T1, Receptor-type tyrosine-protein phosphatase C (Homo sapiens, UniProt P08575); design: species or system Escherichia coli;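 also: inhibition of CD45 enzyme activity measured using DiFMUP as substrate; in other assays of this panel Not Active means under 50% inhibition at 10 µM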
T1 sequence (P08575 whole entry): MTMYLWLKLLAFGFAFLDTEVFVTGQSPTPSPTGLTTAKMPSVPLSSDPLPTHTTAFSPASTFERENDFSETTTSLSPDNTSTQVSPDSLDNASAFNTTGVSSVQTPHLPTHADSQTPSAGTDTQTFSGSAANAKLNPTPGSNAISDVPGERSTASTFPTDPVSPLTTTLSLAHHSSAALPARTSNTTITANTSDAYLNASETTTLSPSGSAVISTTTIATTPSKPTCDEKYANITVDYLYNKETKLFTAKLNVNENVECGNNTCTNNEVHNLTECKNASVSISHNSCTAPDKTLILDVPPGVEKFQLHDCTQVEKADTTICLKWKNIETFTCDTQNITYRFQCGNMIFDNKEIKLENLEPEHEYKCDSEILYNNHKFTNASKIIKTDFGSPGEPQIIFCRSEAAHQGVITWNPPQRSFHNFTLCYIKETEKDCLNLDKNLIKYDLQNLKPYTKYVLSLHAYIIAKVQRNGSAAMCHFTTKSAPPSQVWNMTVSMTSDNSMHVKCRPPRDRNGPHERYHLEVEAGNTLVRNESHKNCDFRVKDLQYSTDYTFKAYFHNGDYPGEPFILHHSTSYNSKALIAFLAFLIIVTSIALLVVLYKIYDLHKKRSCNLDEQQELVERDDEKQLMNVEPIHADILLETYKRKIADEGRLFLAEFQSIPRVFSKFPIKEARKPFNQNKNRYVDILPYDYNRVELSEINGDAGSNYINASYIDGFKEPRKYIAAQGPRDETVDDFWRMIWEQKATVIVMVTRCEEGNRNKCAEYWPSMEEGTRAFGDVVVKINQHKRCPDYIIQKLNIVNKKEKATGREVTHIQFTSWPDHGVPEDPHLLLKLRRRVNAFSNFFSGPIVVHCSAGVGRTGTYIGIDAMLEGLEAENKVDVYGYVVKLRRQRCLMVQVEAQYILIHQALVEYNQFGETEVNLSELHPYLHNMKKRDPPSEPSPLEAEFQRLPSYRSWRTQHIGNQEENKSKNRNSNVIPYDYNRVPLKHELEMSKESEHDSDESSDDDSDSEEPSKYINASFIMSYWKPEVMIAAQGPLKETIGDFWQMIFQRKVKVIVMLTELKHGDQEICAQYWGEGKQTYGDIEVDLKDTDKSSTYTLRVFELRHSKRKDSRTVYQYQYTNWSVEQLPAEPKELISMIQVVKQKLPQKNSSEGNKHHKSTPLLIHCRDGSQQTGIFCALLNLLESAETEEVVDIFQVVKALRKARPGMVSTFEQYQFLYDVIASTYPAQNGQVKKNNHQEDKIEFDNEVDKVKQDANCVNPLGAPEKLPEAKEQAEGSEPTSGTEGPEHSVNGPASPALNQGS

Cathepsin G = target: T2, Cathepsin G (Homo sapiens, UniProt P08311); type: tissue-based; conditions: neutrophil;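 also: inhibition of Cathepsin G enzyme activity, tested on an AMC-conjugated peptide substrate; in other assays of this panel Not Active means under 50% inhibition at 10 µM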
T2 sequence (P08311 whole entry): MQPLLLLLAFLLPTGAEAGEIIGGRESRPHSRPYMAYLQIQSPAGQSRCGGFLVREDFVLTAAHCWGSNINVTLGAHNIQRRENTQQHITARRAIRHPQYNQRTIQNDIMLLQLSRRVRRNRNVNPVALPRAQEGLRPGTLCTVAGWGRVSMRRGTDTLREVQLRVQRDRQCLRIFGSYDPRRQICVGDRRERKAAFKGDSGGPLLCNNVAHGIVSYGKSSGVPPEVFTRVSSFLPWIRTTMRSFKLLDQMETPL

[2] = target: T3, Muscarinic acetylcholine receptor M5 (Homo sapiens, UniProt P08912); type: cell membranes, CHO-K1, Membrane; also: in other assays of this panel Not Active means under 50% inhibition at 10 µM
T3 sequence (P08912 whole entry): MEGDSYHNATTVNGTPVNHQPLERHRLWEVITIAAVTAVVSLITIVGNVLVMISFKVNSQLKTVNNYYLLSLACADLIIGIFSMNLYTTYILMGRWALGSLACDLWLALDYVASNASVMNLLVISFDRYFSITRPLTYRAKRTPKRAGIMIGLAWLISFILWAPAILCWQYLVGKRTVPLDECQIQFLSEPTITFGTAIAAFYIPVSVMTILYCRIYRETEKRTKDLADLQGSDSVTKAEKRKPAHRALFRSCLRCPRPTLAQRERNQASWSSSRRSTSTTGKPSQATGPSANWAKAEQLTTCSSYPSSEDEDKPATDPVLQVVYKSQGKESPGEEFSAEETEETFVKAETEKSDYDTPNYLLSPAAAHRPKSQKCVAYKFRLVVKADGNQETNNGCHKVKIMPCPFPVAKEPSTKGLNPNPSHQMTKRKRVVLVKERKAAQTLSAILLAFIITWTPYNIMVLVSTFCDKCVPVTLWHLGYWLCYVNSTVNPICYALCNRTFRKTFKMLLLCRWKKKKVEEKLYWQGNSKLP

Glycine receptor = Glycine receptor (Rattus norvegicus, UniProt P22771+P24524+P07727+P20781); type: cell membranes, Wistar, Spinal cord, Membrane; also: in other assays of this panel Not Active means under 50% inhibition at 10 µM
[3] = target: Platelet-activating factor receptor (Homo sapiens, UniProt P25105); assay: biochemical; type: tissue-based; conditions: platelet; also: in other assays of this panel Not Active means under 50% inhibition at 10 µM
Sequence of Platelet-activating factor receptor (P25105 whole entry): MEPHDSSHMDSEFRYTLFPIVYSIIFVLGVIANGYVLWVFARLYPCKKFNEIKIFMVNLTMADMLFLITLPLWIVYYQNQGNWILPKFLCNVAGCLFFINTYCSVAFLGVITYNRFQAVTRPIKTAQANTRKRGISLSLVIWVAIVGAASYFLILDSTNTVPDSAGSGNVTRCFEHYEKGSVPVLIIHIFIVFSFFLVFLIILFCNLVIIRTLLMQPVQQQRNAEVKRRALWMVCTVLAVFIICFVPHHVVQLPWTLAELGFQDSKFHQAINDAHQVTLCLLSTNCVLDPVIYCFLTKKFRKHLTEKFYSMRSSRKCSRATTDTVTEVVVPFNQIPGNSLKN

[4] = target: T4, Neuropeptide Y receptor type 2 (Homo sapiens, UniProt P49146); type: cell membranes, Membrane; conditions: kan-ts; also: in other assays of this panel Not Active means under 50% inhibition at 10 µM
T4 sequence (P49146 whole entry): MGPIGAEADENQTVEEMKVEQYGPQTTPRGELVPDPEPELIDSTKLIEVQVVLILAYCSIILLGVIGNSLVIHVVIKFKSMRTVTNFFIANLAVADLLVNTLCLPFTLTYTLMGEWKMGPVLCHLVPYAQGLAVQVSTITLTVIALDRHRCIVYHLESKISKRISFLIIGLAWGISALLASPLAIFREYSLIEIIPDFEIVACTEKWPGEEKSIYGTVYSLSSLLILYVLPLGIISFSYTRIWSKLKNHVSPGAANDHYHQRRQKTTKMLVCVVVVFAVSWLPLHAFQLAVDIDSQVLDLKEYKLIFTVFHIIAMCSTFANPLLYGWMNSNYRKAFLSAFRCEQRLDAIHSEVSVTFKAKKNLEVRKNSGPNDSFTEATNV

[5] = target: Sodium-dependent noradrenaline transporter (Homo sapiens, UniProt P23975); assay: DRUGMATRIX: Norepinephrine Transporter radioligand binding (ligand: [125I] RTI-55); type: cell membranes, MDCK, Membrane; conditions: Not Active = under 50% inhibition at 10 µM
Sequence of Sodium-dependent noradrenaline transporter (P23975 whole entry): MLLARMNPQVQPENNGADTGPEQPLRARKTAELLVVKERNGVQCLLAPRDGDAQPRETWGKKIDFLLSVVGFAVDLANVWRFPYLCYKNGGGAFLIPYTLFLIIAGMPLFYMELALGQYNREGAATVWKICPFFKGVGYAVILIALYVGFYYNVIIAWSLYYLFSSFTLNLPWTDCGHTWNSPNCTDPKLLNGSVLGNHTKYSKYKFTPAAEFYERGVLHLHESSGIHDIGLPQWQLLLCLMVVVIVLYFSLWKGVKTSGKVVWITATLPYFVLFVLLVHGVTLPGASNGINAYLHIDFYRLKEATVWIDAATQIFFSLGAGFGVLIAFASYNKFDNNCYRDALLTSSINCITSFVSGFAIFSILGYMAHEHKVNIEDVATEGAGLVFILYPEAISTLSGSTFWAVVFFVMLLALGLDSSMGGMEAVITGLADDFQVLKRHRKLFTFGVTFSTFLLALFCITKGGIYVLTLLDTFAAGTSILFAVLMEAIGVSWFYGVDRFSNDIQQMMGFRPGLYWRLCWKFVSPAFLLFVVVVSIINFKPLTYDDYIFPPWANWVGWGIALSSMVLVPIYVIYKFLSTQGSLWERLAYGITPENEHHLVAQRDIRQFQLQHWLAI

| Compound | IC50 [1] | IC50 (Cathepsin G) | IC50 ([2]; cho-k1) | IC50 (Glycine receptor) | IC50 [3] | IC50 [4] | IC50 ([5]; mdck) | Ki [1] | Ki (Cathepsin G) | Ki ([2]; cho-k1) | Ki (Glycine receptor) | Ki [3] | Ki [4] | Ki ([5]; mdck) | IC50 ([2]; read-out: IC50) [µM] | Ki ([2]; read-out: Ki) [µM] | IC50 ([5]; read-out: IC50) [µM] | Ki ([5]; read-out: Ki) [µM] |
| --- | --- | --- | --- | --- | --- | --- | --- | --- | --- | --- | --- | --- | --- | --- | --- | --- | --- | --- |
| Cn1cnc([N+](=O)[O-])c1Sc1ncnc2nc[nH]c12 [AZATHIOPRINE] | Not Active | Not Active | Not Active | Not Active | Not Active | Not Active | Not Active | – | – | – | – | – | – | – | – | – | – | – |
| COC1=CC(=O)C[C@@H](C)[C@]12Oc1c(Cl)c(OC)cc(OC)c1C2=O [GRISEOFULVIN] | Not Active | Not Active | Not Active | Not Active | Not Active | Not Active | Not Active | – | – | – | – | – | – | – | – | – | – | – |
| O=C1CN=C(c2ccccc2)c2cc([N+](=O)[O-])ccc2N1 [NITRAZEPAM] | Not Active | Not Active | Not Active | Not Active | Not Active | Not Active | Not Active | – | – | – | – | – | – | – | – | – | – | – |
| CISPLATIN | Not Active | Not Active | Not Active | Not Active | Not Active | Not Active | Not Active | Not Active | Not Active | Not Active | Not Active | Not Active | Not Active | Not Active | – | – | – | – |
| CN(C)CCCC1(c2ccc(F)cc2)OCc2cc(C#N)ccc21 (centres undefined) [CITALOPRAM] | Not Active | Not Active | Not Active | Not Active | Not Active | Not Active | – | – | – | – | – | – | – | – | – | – | – | – |
| Nc1nc2c(ncn2COC(CO)CO)c(=O)[nH]1 [GANCICLOVIR] | Not Active | Not Active | Not Active | Not Active | Not Active | Not Active | – | – | – | – | – | – | – | – | – | – | – | – |
| COCc1c(C(C)C)nc(C(C)C)c(/C=C/[C@@H](O)C[C@@H](O)CC(=O)O)c1-c1ccc(F)cc1 [CERIVASTATIN] | Not Active | Not Active | Not Active | Not Active | Not Active | Not Active | – | – | – | – | – | – | – | – | – | – | – | – |
| COc1ccc(CN(CCN(C)C)c2ccccn2)cc1 [PYRILAMINE] | Not Active | Not Active | Not Active | Not Active | Not Active | Not Active | – | – | – | – | – | – | – | – | – | – | – | – |
| CNCCC=C1c2ccccc2CCc2ccccc21 [NORTRIPTYLINE] | Not Active | Not Active | – | Not Active | Not Active | Not Active | – | – | – | – | – | – | – | – | 0.027 | 0.02 | – | – |
| Fc1ccc([C@@H]2CCNC[C@H]2COc2ccc3c(c2)OCO3)cc1 [PAROXETINE] | Not Active | Not Active | – | Not Active | Not Active | Not Active | – | – | – | – | – | – | – | – | – | – | – | – |
| CCCCCCCCCc1ccc(O)cc1 [4-NONYLPHENOL] | Not Active | Not Active | – | Not Active | Not Active | Not Active | – | – | – | – | – | – | – | – | – | – | 1.25 | 1.24 |
| CC1COc2c(N3CCN(C)CC3)c(F)cc3c(=O)c(C(=O)O)cn1c23 (centres undefined) [OFLOXACIN] | Not Active | Not Active | Not Active | Not Active | Not Active | Not Active | – | – | – | – | – | – | – | – | – | – | – | – |
